Reference: BigSolDB 2.1

c1ccc2[nH]cnc2c1
solubility (mole fraction)
Settings	283.15 K	288.15 K	293.15 K	298.15 K	303.15 K	308.15 K	313.15 K	318.15 K	323.15 K
in 1,4-dioxane	0.0138	0.0171	0.0192	0.0215	0.0242	0.0256	0.0292	0.0321	0.0384
in 2-butanone	0.0222	0.0265	0.03	0.0341	0.0393	0.0451	0.0521	0.0582	0.0664
in acetone	0.0192	0.022	0.0256	0.0296	0.0342	0.0398	0.0452	0.0525	0.0576
in acetonitrile	0.00513	0.0063	0.00754	0.00905	0.0107	0.0123	0.0148	0.0166	0.0194
in ethanol	0.0767	0.0837	0.0911	0.0993	0.109	0.118	0.125	0.14	0.152
in ethyl acetate	0.00813	0.0094	0.0108	0.0128	0.0143	0.0167	0.0193	0.0223	0.0259
in isobutanol	0.0747	0.083	0.0947	0.103	0.114	0.125	0.134	0.139	0.156
in isobutyl acetate	0.00698	0.00808	0.00944	0.0103	0.0122	0.0137	0.016	0.0176	0.0197
in isopropanol	0.0636	0.073	0.0785	0.0852	0.0959	0.109	0.117	0.13	0.134
in isopropyl acetate	0.00761	0.00867	0.01	0.0113	0.0132	0.0152	0.0169	0.0191	0.0219
in methanol	0.0888	0.097	0.105	0.113	0.12	0.129	0.143	0.157	0.17
in methyl acetate	0.00781	0.00918	0.0108	0.0126	0.0146	0.0167	0.0198	0.0228	0.0265
in n-butanol	0.0857	0.091	0.105	0.113	0.121	0.13	0.141	0.15	0.161
in n-butyl acetate	0.0064	0.00759	0.00873	0.0102	0.0121	0.0144	0.0166	0.0182	0.0216
in n-pentanol	0.0983	0.105	0.109	0.119	0.129	0.137	0.143	0.155	0.165
in n-propanol	0.0798	0.0896	0.0961	0.107	0.113	0.121	0.137	0.147	0.156
in n-propyl acetate	0.00645	0.0076	0.009	0.0105	0.0127	0.0141	0.0165	0.0189	0.0219
in sec-butanol	0.0881	0.0973	0.105	0.11	0.117	0.127	0.137	0.151	0.162
in water	0.000498	0.000604	0.000739	0.000874	0.000994	0.00115	0.00133	0.00156	0.00184
